For orientation: IC50 means the point on the concentration scale where inhibition reaches its midpoint. High values mean lower potency, low ones higher potency. One may read the MIC as the smallest concentration in the dilution series that meets the test's criterion for growth inhibition.

Data on six molecules can be found in ChEMBL document CHEMBL1133881, “Antimalarial halorosellinic acid from the marine fungus Halorosellinia oceanica” (Bioorg Med Chem Lett, 2001).

Each structure is given as a SMILES string. Values after ≈ are worked out from the molar mass of the structure shown. Active and inactive are the calls of the source.

For assay [1], the system named is KB. In words: Cytotoxic activity against human epidermoid carcinoma cells of KB cell lines in mouth. In kind it is functional, cell-based.
The test system of assay [2] is BC1 cell line. The experiment in a line: Cytotoxic activity against human breast cancer cells of BC-1 cell lines. It is filed as functional, cell-based.
The test system of assay [3] is Mycobacterium tuberculosis. The experiment in a line: Antimycobacterial activity was assessed against Mycobacterium tuberculosis H37Ra using theMicroplate Alamar Blue Assay (MABA); NA means inactive at 200 ug/mL. It is filed as functional, organism-based. On the technique in general: Alamar Blue is a resazurin reagent that responds to reducing activity.
The test system of assay [4] is Plasmodium falciparum. The experiment in a line: Antimalarial activity against multidrug-resistant Plasmodium falciparum K1; Not active at 20 ug/mL. It is filed as functional, organism-based.
Assay [5] concerns Plasmodium falciparum. In words: Antimalarial activity against multidrug-resistant Plasmodium falciparum K1. In kind it is functional, organism-based.
The test system of assay [6] is BC1 cell line. The experiment in a line: Cytotoxic activity against human breast cancer cells of BC-1 cell lines; NA means inactive at 20 ug/mL. In kind it is functional, cell-based.
Assay [7] relates to Mycobacterium tuberculosis. The experiment in a line: Antimycobacterial activity was assessed against Mycobacterium tuberculosis H37Ra using theMicroplate Alamar Blue Assay (MABA). It is filed as functional.
In assay [8] the test system is KB. The experiment in a line: Cytotoxic activity against human epidermoid carcinoma cells of KB cell lines in mouth; NA means inactive at 20 ug/mL. In kind it is functional, cell-based.

In the case of `CCCCC/C=C(/C(=O)O)C(C)C(=O)O` (centres undefined), the figures for the concentration for half-maximal inhibition (IC50) in assay [1], in assay [2] and in assay [4] were 13 µg/mL (≈ 60.7 µM), 5 µg/mL (≈ 23.3 µM) and “Not Active”, respectively. Also, the MIC entry in assay [3] is “inactive”.
In the case of `CC(=O)O[C@@H]1/C=C/[C@@](C)(O)C(=O)[C@@H](C)C/C=C/[C@H]2[C@@H]3O[C@]3(C)[C@@H](C)[C@H]3[C@H](Cc4ccccc4)NC(=O)[C@@]312` [CYTOCHALASIN Q], the IC50 in assay [5] was found to be 17 µg/mL (≈ 33.5 µM); in assay [1], 3 µg/mL (≈ 5.91 µM); in assay [2], 1 µg/mL (≈ 1.97 µM). The MIC result in assay [3] is “inactive”.
As to `C/C(=C\[C@H](O)[C@H](O)[C@H](C)C1=CC[C@@]2(C)C[C@@H]3[C@H](C)CC[C@@H]3/C(C(=O)O)=C\C[C@H]12)C(=O)O`, the half-maximal inhibitory concentration (IC50) in assay [5] is 13 µg/mL (≈ 30.1 µM); in assay [6], “Not Active”; in assay [8], “Not Active”. Moreover, the minimum inhibitory concentration (MIC) in assay [7] amounted to 200 µg/mL (≈ 462 µM).
`CCCCC/C=C(/C(=O)O)C(C)C(=O)OC` (centres undefined): the IC50 entry in assay [6], in assay [8] and in assay [4] was “Not Active” in each case. The MIC entry in assay [3] is “inactive”.
With `C[C@H]1Cc2c(C(=O)O)ccc(O)c2C(=O)O1`, the half-inhibitory concentration (IC50) in assay [5] came to 4 µg/mL (≈ 18 µM); in assay [1], 3 µg/mL (≈ 13.5 µM); in assay [2], 3 µg/mL (≈ 13.5 µM). The MIC entry in assay [3] is “inactive”.
Turning to `C/C(=C\C1OC(C)(C)O[C@@H]1[C@H](C)C1=CC[C@@]2(C)C[C@@H]3[C@H](C)CC[C@@H]3/C(C(=O)O)=C\C[C@H]12)C(=O)O` (some centres undefined), the concentration for half-maximal inhibition (IC50) was 19 µg/mL (≈ 40.2 µM) in assay [5], “Not Active” in assay [6] and “Not Active” in assay [8]. This molecule also had an MIC in assay [7] of 200 µg/mL (≈ 423 µM).
